Data as given in US20040077028A1, “Assay for thrombocytopenia associated with administration of platelet GPIIb-IIIa receptor antagonists” (priority 2002, published 2004).
Positions of bridges follow the written chain, without caps; N, C: chain ends. Non-standard residues stand in square brackets, D forms with d. Residues, ends and D or L forms follow the SMILES beside them. hArg = N=C(N)NCCCC[C@H](N)C(=O)O; Mpa = O=C(O)CCS

Columns and labels:
[1] = system: platelets (platelet P-selectin expression); conditions: platelet-rich plasma; 1 μg/ml eptifibatide; 0.5 μM ADP; absence of Mab IV.3; FIG. 3
Description: In these experiments, platelet-rich plasma was pre-incubated with FcγRII receptor blocking monoclonal antibody (Mab IV.3, 10 μg/ml). […] The mean fluorescence intensity of platelet P-selectin expression in the presence of 0.5 μM ADP was measured in the presence or absence of unconjugated Y2/51 and in the presence or absence of GPIIb-IIIa receptor antagonist, and with or without an FcγRII receptor blocking monoclonal antibody (Mab IV.3).

[2] = system: platelets (platelet surface P-selectin expression); assay: Platelet surface P-selectin expression by flow cytometry with GPIIb-specific antibody 5B12; type: cell-based; conditions: 5B12 (GPIIb-specific) instead of Y2/51; sub-maximal agonist; FIG. 2
Description: After a subject's blood sample has been incubated with a GPIIb-IIIa antagonist as described above, it is diluted (e.g., between 1:10 and 1:15) in autologous platelet-poor plasma (PPP). Platelet activation is assayed. Briefly, an aliquot (e.g., 20 μl) of dilute whole blood (or PRP)-GPIIb-IIIa receptor antagonist mix is incubated for 15-30 minutes at an appropriate temperature (for example, between about 22° C. and 37° C.) with sub-maximal concentration of a platelet agonist (e.g., in 10 μl). Examples of sub-maximal concentrations of platelet agonist are 0.5 μM ADP, 5.0 μM thrombin receptor activating peptide (TRAP), or 1.5 μM iso-TRAP. ADP is not generally used in the assay when the subject is receiving ADP receptor antagonist therapy. To identify platelets and to detect platelet activation, detection reagents are added.
The samples are generally analyzed using flow cytometry. Platelets are identified by light scatter characteristics and labeling of platelets using platelet-specific antibodies (e.g., antibodies that recognize CD41, CD61, CD42a, or CD42b). The binding of antibodies directed against indicators of platelet activation (e.g., anti-P-selectin, CD62P) is assayed using flow cytometry. […] The mean fluorescence intensity and the percent positive (above background) measurements are recorded.
In a second set of experiments, the monoclonal antibody 5B12 (DAKO) which is GPIIb-specific was used instead of Y2/51.

[3] = system: platelets (leukocyte-platelet aggregates) in citrate anticoagulated whole blood; assay: Neutrophil-platelet (leukocyte-platelet) aggregates by flow cytometry in whole blood with Y2/51; type: cell-based; conditions: abciximab 6.5 μg/ml, tirofiban 50 ng/ml, FITC conjugated Y2/51, FIG. 1
Description: In some embodiments, platelet activation is detected by assaying leukocyte-platelet aggregation. In such protocols, peripheral blood is drawn from a subject into a suitable anticoagulant, for example 3.2% sodium citrate anticoagulant or PPACK. […] ADP is not generally used in the assay when the subject is receiving ADP receptor antagonist therapy. […] The fluorescent conjugates of the reagents are labeled to be distinguishable from each other (e.g., fluorescein and phycoerythrin) so that both can be detected by flow cytometry. […] Samples are generally analyzed by flow cytometry. […] Leukocyte-platelet aggregates are identified using fluorescence histograms displaying fluorescence (above background) of platelet specific markers (e.g., CD41, CD61, CD42a or CD42b) from the gated monocyte, neutrophil or lymphocyte populations. Both the mean fluorescence intensity and the percent positive (above background) measurements are recorded. The relative amount of fluorescence (or percent positive above background) in the subject's sample is compared to a reference. An increase in the amount of fluorescence (or percent positive above background) in the subject's sample compared to the reference indicates an increased amount of platelet activation in the subject's sample. […]

[4] = cited from earlier work
[5] = within the patient population that develops an HACA response

Row | Molecule | augmentation by Y2/51 of ADP-mediated platelet activation (P-selectin) in the presence of the antagonist [1] | augmentation of agonist-induced platelet surface P-selectin expression in the presence of the GPIIb-IIIa antagonist with 5B12 [2] | augmentation by Y2/51 of agonist-induced leukocyte-platelet aggregation (neutrophil-platelet aggregates) in the presence of the GPIIb-IIIa antagonist [3] | incidence of thrombocytopenia (platelet count of <100×10^9/L) ([4]; patients receiving the drug for a second time (re-administration)) [%] | incidence of profound thrombocytopenia (platelet count of <20×10^9/L) [4, 5] | incidence of thrombocytopenia (count of <100×10^9/L) [4, 5] [%]
1 | N=C(N)NCCCC[C@@H]1NC(=O)CCSSC[C@@H](C(N)=O)NC(=O)[C@@H]2CCCN2C(=O)[C@H](Cc2c[nH]c3ccccc23)NC(=O)[C@H](CC(=O)O)NC(=O)CNC1=O [eptifibatide] ([Mpa][hArg]GDWPC-NH2; disulfide 1-7) | augments | not augmented |  |  |  | 
2 | CCCCS(=O)(=O)N[C@@H](Cc1ccc(OCCCCC2CCNCC2)cc1)C(=O)O [tirofiban] |  | not augmented | augmented |  |  | 
3 | abciximab |  | observed | did not augment | 3.6 | less than 1% | 3.5
